{"source": "patent US20120329736A1", "about": "“Treatment for gastrointestinal disorders using a selective, site-activated binding system” (priority 2011, published 2012)", "key": {"[1]": {"assay": "Hydrogen peroxide retention by extracts after desiccation and rehydration (colorimetric strips)", "assay_type": "physicochemical", "settings": "dissolved in 35% hydrogen peroxide, heated at 80° C., desiccated, rehydrated", "procedure": "In order to compare the samples provided above, a test series was prepared in 30 ml tubes containing from 1 g-10 g of the above extracts of Chinese Gall, Green Tea, Pomegranate and Resveratrol. Each was dissolved in 20 ml of 35% hydrogen peroxide then separate to two aliquots. One part was heated at 80° C. to a dark viscous semi-liquid and allowed to desiccate to a final volume of 5 ml. Each was rehydrated and serially diluted to detection range."}, "[2]": {"settings": "cited from earlier work"}, "[3]": {"system": "broad spectrum of bacteria, gram positive and gram negative", "settings": "cited from earlier work"}}}
{"compound": "Oc1ccc(C=Cc2cc(O)cc(O)c2)cc1", "note": "[Resveratrol]", "values": [{"measurement": "peroxide retention capability", "setting": "[1]", "result": "relatively less ability to form stable perhydrates"}, {"measurement": "water solubility", "setting": "[2]", "result": 3, "unit": "µg/mL"}]}
{"compound": "RIFAXAMIN", "values": [{"measurement": "MIC performance compared to the binding system", "setting": "[3]", "result": "performed poorly compared to the binding system"}]}
